Assay results published in patent publication US9555038B2, “Heterocycle-substituted tetracyclic compounds and methods of use thereof for the treatment of viral diseases” (Merck Sharp & Dohme Corp., priority 2013, dated 2017).
Like-named read-outs stand apart in the source and are kept apart here.

Assays:
HCV replicon 2B = assay: Cell-based HCV Replicon Assay A, replicon 2B
In short: (§1)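 Replicon cells seeded at 2000 cells/well with compound, 10 serial dilutions starting at 333.3 nM to 1.667 nM, 0.5% DMSO, 5% FBS, harvested on day 3. Replicon RNA measured by multiplex TaqMan RT-PCR with cyclophilin as endogenous control, quantified from standard curves of Ct vs log ng RNA.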

HCV replicon 1B = assay: Cell-based HCV Replicon Assay B, replicon 1B
In short: (§2)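 Replicon cells seeded in 5% FBS; compounds added 24 h later, then 3 days' incubation. Replicon RNA quantified by real-time RT-PCR with genotype-specific primers/probes (NS5B amplicon for 1b). EC50 = concentration raising CT by 1 over projected baseline.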

HCV replicon 1A = assay: Cell-based HCV Replicon Assay A, replicon 1A
In short: as §1

HCV replicon 1AQ30D = assay: Cell-based HCV Replicon Assay B, replicon 1AQ30D
In short: as §2

HCV replicon 1AY93H = assay: Cell-based HCV Replicon Assay A, replicon 1AY93H
In short: as §1

[1] = Hepatitis C virus, read-out: 2B IC50 (nM), replicon 2B
[2] = Hepatitis C virus, read-out: 1A Q30D IC50 (nM), replicon 1AQ30D
[3] = Hepatitis C virus, read-out: 1A Y93H IC50 (nM), replicon 1AY93H
[4] = read-out: 1A Y93H IC50, replicon 1AY93H
[5] = read-out: 1A Q30D IC50, replicon 1AQ30D

| Structure (SMILES) | IC50 (HCV replicon 2B; [1]) [nM] | IC50 (HCV replicon 1B; Hepatitis C virus) [pM] | IC50 (HCV replicon 1A; Hepatitis C virus) [pM] | IC50 (HCV replicon 1AQ30D; [2]) [nM] | IC50 (HCV replicon 1AY93H; [3]) [nM] | IC50 (HCV replicon 2B; read-out: 2B IC50, replicon 2B) [nM] | IC50 (HCV replicon 1A) [pM] | IC50 (HCV replicon 1AY93H; [4]) [nM] | IC50 (HCV replicon 1B) [pM] | IC50 (HCV replicon 1AQ30D; [5]) [nM] |
| --- | --- | --- | --- | --- | --- | --- | --- | --- | --- | --- |
| COC(=O)N[C@H](C(=O)N1CCC[C@H]1c1ncc(-c2cc(C)c3c(c2)OC(c2cnc(C4CCC4)s2)n2c-3cc3cc(-c4cnc([C@@H]5CCCN5C(=O)[C@@H](NC(=O)OC)C(C)C)[nH]4)ccc32)[nH]1)C(C)C (single isomer, unassigned) [Compound 204] | 0.013 | 2 | 4 | 0.772 | 0.0579 | – | – | – | – | – |
| CCCc1ncc(C2Oc3cc(-c4cnc([C@@H]5CCCN5C(=O)[C@@H](NC(=O)OC)C(C)C)[nH]4)cc(C)c3-c3cc4cc(-c5cnc([C@@H]6C[C@H]7C[C@H]7N6C(=O)[C@@H](NC(=O)OC)C(C)C)[nH]5)ccc4n32)s1 (single isomer, unassigned) [Compound 206] | – | 4 | – | 0.83 | – | 0.03 | 7 | 0.023 | – | – |
| COC(=O)N[C@H](C(=O)N1CCC[C@H]1c1ncc(-c2cc(C)c3c(c2)OC(c2cnc(C4CC4)s2)n2c-3cc3cc(-c4cnc([C@@H]5C[C@H]6C[C@H]6N5C(=O)[C@@H](NC(=O)OC)C(C)(C)F)[nH]4)ccc32)[nH]1)C(C)C (single isomer, unassigned) [Compound 208] | – | 3 | 2.8 | 0.268 | – | 0.011 | – | 0.0243 | – | – |
| COC(=O)N[C@H](C(=O)N1CCC[C@H]1c1ncc(-c2cc(C)c3c(c2)OC(c2cnc(C4CCC4)s2)n2c-3cc3cc(-c4cnc([C@@H]5C[C@H]6C[C@H]6N5C(=O)[C@@H](NC(=O)OC)C(C)(C)F)[nH]4)ccc32)[nH]1)C(C)C (single isomer, unassigned) [Compound 210] | 0.006 | 2 | 4.9 | 0.216 | 0.0163 | – | – | – | – | – |
| COC(=O)NC(C(=O)N1CCC[C@H]1c1ncc(-c2ccc3c(c2)cc2n3C(c3cnc(C4CC4)s3)Oc3cc(-c4cnc([C@@H]5CCCN5C(=O)[C@@H](NC(=O)OC)C(C)C)[nH]4)cc(C)c3-2)[nH]1)C1C[C@@H](C)O[C@@H](C)C1 (single isomer, unassigned) [Compound 212] | 0.007 | 8 | 6.8 | 0.499 | 0.0354 | – | – | – | – | – |
| COC(=O)NC(C(=O)N1CCC[C@H]1c1ncc(-c2ccc3c(c2)cc2n3C(c3cnc(C4CC4)s3)Oc3cc(-c4cnc([C@@H]5CCCN5C(=O)[C@@H](NC(=O)OC)C(C)C)[nH]4)cc(C)c3-2)[nH]1)C1C[C@@H](C)O[C@H](C)C1 (single isomer, unassigned) [Compound 213] | 0.005 | 7 | 7.8 | 0.126 | 0.0252 | – | – | – | – | – |
| COC(=O)NC(C(=O)N1CCC[C@H]1c1ncc(-c2ccc3c(c2)cc2n3C(c3cnc(C4CC4)s3)Oc3cc(-c4cnc([C@@H]5CCCN5C(=O)[C@@H](NC(=O)OC)C(C)C)[nH]4)cc(C)c3-2)[nH]1)C1CCOC(C)(C)C1 (single isomer, unassigned) [Compound 214] | 0.004 | 8 | 2.7 | 0.44 | 0.02 | – | – | – | – | – |
| COC(=O)NC(C(=O)N1[C@@H]2C[C@@H]2C[C@H]1c1ncc(-c2ccc3c(c2)cc2n3C(c3cnc(C4CC4)s3)Oc3cc(-c4cnc([C@@H]5CCCN5C(=O)[C@@H](NC(=O)OC)C(C)C)[nH]4)cc(C)c3-2)[nH]1)C1C[C@@H](C)O[C@@H](C)C1 (single isomer, unassigned) [Compound 217] | – | – | – | 0.241 | – | 0.011 | 3.2 | 0.0085 | 5 | – |
| COC(=O)NC(C(=O)N1CCC[C@H]1c1ncc(-c2ccc3c(c2)cc2n3C(c3cnc(C4CCC4)s3)Oc3cc(-c4cnc([C@@H]5CCCN5C(=O)[C@@H](NC(=O)OC)C(C)C)[nH]4)cc(C)c3-2)[nH]1)C1C[C@@H](C)O[C@@H](C)C1 (single isomer, unassigned) [Compound 219] | – | 4 | – | 0.096 | – | 0.003 | 2.7 | 0.013 | – | – |
| COC(=O)NC(C(=O)N1CCC[C@H]1c1ncc(-c2ccc3c(c2)cc2n3C(c3cnc(C4CCC4)s3)Oc3cc(-c4cnc([C@@H]5CCCN5C(=O)[C@@H](NC(=O)OC)C(C)C)[nH]4)cc(C)c3-2)[nH]1)C1CCOC(C)(C)C1 (single isomer, unassigned) [Compound 221] | 0.006 | 8 | 7 | 0.39 | 0.06 | – | – | – | – | – |
| COC(=O)NC(C(=O)N1[C@@H]2C[C@@H]2C[C@H]1c1ncc(-c2ccc3c(c2)cc2n3C(c3cnc(C4CCC4)s3)Oc3cc(-c4cnc([C@@H]5CCCN5C(=O)[C@@H](NC(=O)OC)C(C)C)[nH]4)cc(C)c3-2)[nH]1)C1C[C@@H](C)O[C@@H](C)C1 (single isomer, unassigned) [Compound 222] | 0.007 | 6 | 2.7 | 0.044 | 0.0059 | – | – | – | – | – |
| COC(=O)NC(C(=O)N1[C@@H]2C[C@@H]2C[C@H]1c1ncc(-c2ccc3c(c2)cc2n3C(c3cnc(C4CCC4)s3)Oc3cc(-c4cnc([C@@H]5CCCN5C(=O)[C@@H](NC(=O)OC)C(C)C)[nH]4)cc(C)c3-2)[nH]1)C1CCOC(C)(C)C1 (single isomer, unassigned) [Compound 223] | 0.115 | 8 | 6 | 2.98 | 0.3 | – | – | – | – | – |
| COC(=O)N[C@H](C(=O)N1CCC[C@H]1c1ncc(-c2cc(F)c3c(c2)OC(c2cnc(C4CC4)s2)n2c-3cc3cc(-c4cnc([C@@H]5C[C@H]6C[C@H]6N5C(=O)[C@@H](NC(=O)OC)C(C)C)[nH]4)ccc32)[nH]1)C(C)C (single isomer, unassigned) [Compound 300] | – | 3 | – | – | – | 0.011 | 3 | 0.0041 | – | 0.066 |
| COC(=O)N[C@H](C(=O)N1CCC[C@H]1c1ncc(-c2cc(F)c3c(c2)OC(c2cnc(C4CC4)s2)n2c-3cc3cc(-c4cnc([C@@H]5C[C@H]6C[C@H]6N5C(=O)[C@@H](NC(=O)OC)C(C)C)[nH]4)ccc32)[nH]1)C(C)C (single isomer, unassigned) [Compound 301] | – | – | – | – | – | 0.335 | 1.4 | 0.22 | 4 | 2.12 |
| COC(=O)N[C@H](C(=O)N1CCC[C@H]1c1ncc(-c2cc(F)c3c(c2)OC(c2cnc(C(C)(C)C)s2)n2c-3cc3cc(-c4cnc([C@@H]5CCCN5C(=O)[C@@H](NC(=O)OC)C(C)C)[nH]4)ccc32)[nH]1)C(C)C (single isomer, unassigned) [Compound 302] | – | – | 2.9 | 0.168 | – | 0.077 | – | 0.0071 | 1 | – |
| COC(=O)NC(C(=O)N1CCC[C@H]1c1ncc(-c2ccc3c(c2)cc2n3C(c3cnc(C4CC4)s3)Oc3cc(-c4cnc([C@@H]5CCCN5C(=O)[C@@H](NC(=O)OC)C(C)C)[nH]4)cc(F)c3-2)[nH]1)C1C[C@@H](C)O[C@H](C)C1 (single isomer, unassigned) [Compound 304] | – | 3 | 2 | – | – | 0.048 | – | 0.123 | – | 0.954 |
| COC(=O)NC(C(=O)N1CCC[C@H]1c1ncc(-c2ccc3c(c2)cc2n3C(c3cnc(C4CC4)s3)Oc3cc(-c4cnc([C@@H]5CCCN5C(=O)[C@@H](NC(=O)OC)C(C)C)[nH]4)cc(F)c3-2)[nH]1)C1C[C@@H](C)O[C@@H](C)C1 (single isomer, unassigned) [Compound 307] | – | 5 | – | 0.047 | – | 0.006 | 4.2 | 0.0083 | – | – |
